Measurements taken from US20080255052A1, “Immunologic regulation by theta defensins” (priority 2004, published 2008).
Entries after “also recorded” stand apart in the source; their conditions may differ. Bridges are numbered along the chain shown (N, C = ends).

Experiments:
[1] = test system: S. aureus and E. coli ML35; experiment: Antimicrobial activities in physiological salts and serum; format: cell-based; settings: NaCl, CaCl2, MgCl2; 10% human serum
Procedure: (§1) The microbicidal activities of various theta defensin peptides were determined by incubating 2×10^6 CFU/ml with peptides (0-100 μg/ml) in 50 μl of low salt diluents: 10 mM PIPES buffer containing 5 mM glucose, pH 7.4, 10 mM Tris-HCl, pH 7.4, or 10 mM sodium phosphate, pH 7.4, or the same diluents supplemented with 25 to 154 mM NaCl. After 2 h incubation at 37° C., the cell suspensions were diluted 1:50 with 10 mM sodium phosphate buffer, pH 7.4, and exponentially spread with an Autoplate 400 (Spiral Biotech, MD) onto trypticase soy agar (bacteria) or Sabouraud dextrose agar (fungi). After incubation at 37° C. for 18-48 h, colonies were counted and cell survival was expressed as CFU/ml.
(§2) Staphylocidal activities of theta defensins and protegrin were assayed in various buffers and salt concentrations. Log-phase bacteria were incubated for 2 h at 37° C. with increasing concentrations of the peptides (FIG. 9). Cells were incubated with increasing concentrations of RTD-1 (filled circles), RTD-2 (filled triangles), RTD-3 (filled squares), and PG-1 (filled diamonds) in 10 mM PIPES (FIG. 9A), 10 mM Tris-Cl (FIG. 9B), or 10 mM sodium phosphate (FIG. 9C), at pH 7.4, containing 154 mM NaCl.
The bactericidal activities of theta defensins against E. coli in various physiological salt concentrations were also tested. […] Killing of E. coli ML35 was measured by incubating increasing concentrations of RTD-1 (filled circles), RTD-2 (filled triangles), RTD-3 (filled squares), and PG-1 (filled diamonds) with log-phase E. coli ML35 in 10 mM PIPES, pH 7.4, with CaCl2 (1.2 mM) (FIG. 10A), MgCl2 (0.8 mM) (FIG. 10B), or in control incubations where the divalent salts were omitted (FIG. 10C).
The activities of theta defensins in the presence of serum were also analyzed. […] Dose-dependent bactericidal activities of RTD-1 (filled circles), RTD-2 (filled triangles), RTD-3 (filled squares), and PG-1 (filled diamonds) against bacteria were determined in 10 mM PIPES, pH 7.4, containing 10% normal (for S. aureus) or heat-inactivated (for E. coli) human serum.

[2] = test system: Escherichia coli ML35, Staphylococcus aureus 502A, Candida albicans, Cryptococcus neoformans; experiment: Microbicidal and agar diffusion assays in low salt diluents; format: cell-based, bacteria and fungi; settings: low salt conditions, absence of physiologic salt
Procedure: The antimicrobial activities of various theta defensin compounds were measured using a diffusion assay against bacteria (Staphylococcus aureus 502a and Escherichia coli ML35) and fungi (Candida albicans 16820 and Cryptococcus neoformans 271A). The antimicrobial activities were determined in an agar diffusion assay as described previously (Osapay et al., J. Biol. Chem. 275:12017-12022 (2000)). Briefly, 10-μl wells were bored in a 9-cm^2 plate of agarose, buffered with 10 mM 1,4-piperazine-bis(ethanesulfonic acid) (PIPES), pH 7.4, containing 5 mM glucose, and seeded with 1×10^6 mid-log phase cells. Five-μl aliquots of each peptide, dissolved in 0.01% acetic acid (HOAc) at 10-300 μg/ml, were added to each well. After incubation at 37° C. for 2 h, the seeded agar was overlaid with molten agarose containing 6% trypticase soy broth (for bacteria) or Sabouraud dextrose broth (for fungi). Plates were incubated at 37° C. for 18-24 h, and antimicrobial activity was determined by measuring the diameter of clearing around each well.
as §1
FIGS. 2-4 show the results of microbicidal assays performed with various theta defensins and protegrin. Cells were incubated for 2 hours at 37° C. in 10 mM PIPES, pH 7.4, and 5 mM glucose, as described above.
FIGS. 5-8 show antimicrobial activities of various theta defensins as measured using the diffusion assay. […]

[3] = test system: Human PBMCs; experiment: TNFα release from LPS-stimulated PBMCs; format: cell-based; settings: LPS 10 μg/ml, RTD-1 0.1-10 μg/ml, supernatants after 3 days
Procedure: Human PBMCs were prepared by the dextran sedimentation method and resuspended in Iscove's Modified Dulbecco's Medium containing 10% fetal bovine serum. […] Under conditions shown in A-C, aliquots containing 0.5−1×10^6 PBMCs were incubated with 10 μg/ml lipopolysaccharide (LPS) for 2 hours at 37° C., 5% CO2, then treated with RTD-1 (A: 10 μg/ml, B: 1 μg/ml, C, 0.1 μg/ml). Under conditions shown in D-E, a mixture of LPS (10 μg/ml) and RTD-1 (D: 10 μg/ml, E: 1 μg/ml, F: 0.1 μg/ml) were incubated for 2 hours at 37° C. then added to PBMC. Under conditions shown in G-L, control incubations were performed in which PBMCs were incubated with either 10 μg/ml LPS (G), 1 μg/ml phorbol 12-myristate 13-acetate (PMA) (H), varying concentrations of RTD-1 (1:10 μg/ml, J:1 μg/ml, K:0.1 μg/ml), or in media (L). Supernatants from these incubations were harvested after 3 days and soluble TNF was measured using Human TNF ELISA Kit II (BD Biosciences, San Diego). Results were obtained from duplicate incubations.

[4] = test system: LPS-stimulated cells; settings: cited from earlier work
[5] = test system: various theta defensin peptides
[6] = test system: Staphylococcus aureus; experiment: Staphylocidal activity in buffers containing physiologic NaCl; format: cell-based; settings: 154 mM NaCl, pH 7.4, 2 h at 37° C.
Procedure: as §1, §2

[7] = test system: primary R5 strain of HIV-1; experiment: Anti-HIV activity in PHA-stimulated PBMCs (p24 ELISA); format: cell-based; settings: day 7 of infection
Procedure: Phytohaemagglutinin (PHA)-stimulated peripheral blood mononuclear cells (PBMCs), pre-incubated for 3 hours with serial dilutions of defensins, were mixed with 1000 TCID50 (50% infectivity of susceptible cells in tissue culture) of a primary R5 strain of HIV-1. Two hours later, the cells were washed, and fresh medium containing defensin and 20 U/ml of IL-2 was added. Five days after infection, 50% of the medium was removed and replaced with fresh medium containing defensin and IL-2. On day 7 of infection, the levels of HIV protein p24 in supernatant fluid were measured by ELISA. […] The active β-defensin was human β-defensin-3.

| Substance | activity in the presence of physiological salts and serum [1] | antimicrobial activity in vitro [2] | antimicrobial activity in the presence of salt compared to RTD-1 [6] | further results |
| --- | --- | --- | --- | --- |
| Gly-Phe-Cys-Arg-Cys-Leu-Cys-Arg-Arg-Gly-Val-Cys-Arg-Cys-Ile-Cys-Thr-Arg (cyclo(GFCRCLCRRGVCRCICTR); disulfide 7-12, 5-14, 3-16) [RTD-1, Rhesus theta defensin, macrocyclic 18-amino acid antimicrobial peptide, heterodimer of RTD1a and RTD1b nonapeptides] | active | nearly indistinguishable | – | extracellular release of TNFα [3]: modulates extracellular release of TNF-a; levels of pro-inflammatory cytokines (TNF-α, IL-1β) [4]: Reduction |
| Purified β-galactosidase | – | – | – | β-Galactosidase activity measured as the rate of o-nitrophenyl-beta-D-galactopyranoside (ONPG) hydrolysis, compared to that obtained in the absence of peptide [5]: various theta defensins inhibited β-galactosidase enzymatic activity |
| RTD-2: naturally occurring theta defensin, homodimer of nine-residue sequences (SEQ ID NO:4, FIG. 1) (cyclo(GFCRCICTRGFCRCICTR); not fully specified (bridges); also: homodimer of nine-residue sequences, cyclic; listed as Macaca mulatta) | active | nearly indistinguishable | more potent antimicrobial activity; also recorded: higher antimicrobial activity than RTD-1 | – |
| RTD-3: naturally occurring theta defensin, homodimer of nine-residue sequences (SEQ ID NO:6, FIG. 1) (cyclo(GVCRCLCRRGVCRCLCRR); not fully specified (bridges); also: homodimer of nine-residue sequences, cyclic; listed as Macaca mulatta) | active | nearly indistinguishable | more potent antimicrobial activity; also recorded: higher antimicrobial activity than RTD-1 | – |
| human β-defensin-3: human β-defensin-3, the active β-defensin in the anti-HIV assay (GIINTLQKYYCRVRGGRCAVLSCLPKEEQIGKCSTRGRKCCRRKK; Beta-defensin 103; UniProt P81534 23-67, looked up) | – | – | – | anti-HIV activity (HIV protein p24 in supernatant) [7]: active |
